According to patent US8017633B2, “Roflumilast for the treatment of diabetes mellitus” (Nycomed GmbH, priority 2005, dated 2011):

Assays:
[1] = test system: C57BLKS db/db mice; assay: Daily food intake of db/db mice during once-daily oral treatment; assay type: in vivo, mouse
Procedure: (§1) Female C57BLKS db/db mice obtained from M&B A/S (8680 Ry, Denmark) were used in the studies at 10 to 11 weeks of age. Mice were housed 10 per cage and allowed free access to water and standard laboratory diet for rodents (chow 3433, Provimi Kliba SA, 4303 Kaiseraugst, Switzerland).
(§2) Mice were treated with vehicle, Roflumilast or Roflumilast-N-Oxide, respectively once daily in the morning. Roflumilast or Roflumilast-N-Oxide was suspended in 4% methocel and applied via oral gavage using oral feeding & dosing needles (outer diameter: 1.5 mm, TSE GmbH, 61350 Bad Homburg, Germany). A volume of 10 ml/kg body weight was administered for each dose.
(§3) The daily intake of food (chow 3433) and water was measured per animal (total daily intake of food divided by the number of animals) before and during the treatment with Roflumilast or Roflumilast-N-Oxide.

[2] = test system: C57BLKS db/db mice; assay: Daily water intake of db/db mice during once-daily oral treatment; assay type: in vivo, mouse; settings: 1 mg/kg group
Procedure: as §1, §2, §3

O=C(Nc1c(Cl)c[n+]([O-])cc1Cl)c1ccc(OC(F)F)c(OCC2CC2)c1 [Rof-N-Oxide, 3-cyclopropylmethoxy-4-difluoromethoxy-N-(3,5-dichloro-1-oxido-pyridin-4-yl)benzamide]
Daily food intake before the first application ([1]; 1 mg/kg group, Day −1, before first application): 6.4 g per mouse
Daily food intake before the first application ([1]; 1 mg/kg group, Day −2, before first application): 6.4 g per mouse
Daily food intake before the first application ([1]; 1 mg/kg group, Day −3, before first application): 6.4 g per mouse
Daily food intake before the first application ([1]; 1 mg/kg group, Day −4, before first application): 5.9 g per mouse
Daily food intake before the first application ([1]; 1 mg/kg group, Day −5, before first application): 6.0 g per mouse
Daily food intake on the days of application ([1]; 1 mg/kg oral once daily, Day 1): 5.4 g per mouse
Daily food intake on the days of application ([1]; 1 mg/kg oral once daily, Day 2): 5.4 g per mouse
Daily food intake on the days of application ([1]; 1 mg/kg oral once daily, Day 3): 5.8 g per mouse
Daily food intake on the days of application ([1]; 1 mg/kg oral once daily, Day 4): 5.5 g per mouse
Daily food intake on the days of application ([1]; 1 mg/kg oral once daily, Day 5): 5.6 g per mouse
Daily food intake on the days of application ([1]; 1 mg/kg oral once daily, Day 6): 5.8 g per mouse
Daily food intake on the days of application ([1]; 1 mg/kg oral once daily, Day 7): 5.4 g per mouse
Daily food intake on the days of application ([1]; 1 mg/kg oral once daily, Day 8): 5.5 g per mouse
Daily food intake before the first application ([1]; 3 mg/kg group, Day −1, before first application): 6.1 g per mouse
Daily food intake before the first application ([1]; 3 mg/kg group, Day −2, before first application): 6.1 g per mouse
Daily food intake before the first application ([1]; 3 mg/kg group, Day −3, before first application): 6.4 g per mouse
Daily food intake before the first application ([1]; 3 mg/kg group, Day −4, before first application): 6.4 g per mouse
Daily food intake before the first application ([1]; 3 mg/kg group, Day −5, before first application): 5.5 g per mouse
Daily food intake on the days of application ([1]; 3 mg/kg oral once daily, Day 1): 4.9 g per mouse
Daily food intake on the days of application ([1]; 3 mg/kg oral once daily, Day 2): 4.9 g per mouse
Daily food intake on the days of application ([1]; 3 mg/kg oral once daily, Day 3): 4.5 g per mouse
Daily food intake on the days of application ([1]; 3 mg/kg oral once daily, Day 4): 4.5 g per mouse
Daily food intake on the days of application ([1]; 3 mg/kg oral once daily, Day 5): 4.6 g per mouse
Daily food intake on the days of application ([1]; 3 mg/kg oral once daily, Day 6): 4.9 g per mouse
Daily food intake on the days of application ([1]; 3 mg/kg oral once daily, Day 7): 4.3 g per mouse
Daily food intake on the days of application ([1]; 3 mg/kg oral once daily, Day 8): 4.2 g per mouse
Daily food intake before the first application ([1]; 10 mg/kg group, Day −1, before first application): 6.5 g per mouse
Daily food intake before the first application ([1]; 10 mg/kg group, Day −2, before first application): 6.4 g per mouse
Daily food intake before the first application ([1]; 10 mg/kg group, Day −3, before first application): 6.4 g per mouse
Daily food intake before the first application ([1]; 10 mg/kg group, Day −4, before first application): 6.2 g per mouse
Daily food intake before the first application ([1]; 10 mg/kg group, Day −5, before first application): 6.0 g per mouse
Daily food intake on the days of application ([1]; 10 mg/kg oral once daily, Day 1): 2.9 g per mouse
Daily food intake on the days of application ([1]; 10 mg/kg oral once daily, Day 2): 3.3 g per mouse
Daily food intake on the days of application ([1]; 10 mg/kg oral once daily, Day 3): 3.5 g per mouse
Daily food intake on the days of application ([1]; 10 mg/kg oral once daily, Day 4): 2.9 g per mouse
Daily food intake on the days of application ([1]; 10 mg/kg oral once daily, Day 5): 3.0 g per mouse
Daily food intake on the days of application ([1]; 10 mg/kg oral once daily, Day 6): 3.1 g per mouse
Daily food intake on the days of application ([1]; 10 mg/kg oral once daily, Day 7): 2.6 g per mouse
Daily food intake on the days of application ([1]; 10 mg/kg oral once daily, Day 8): 3.8 g per mouse
Daily food intake before the first application ([1]; 30 mg/kg group, Day −1, before first application): 6.3 g per mouse
Daily food intake before the first application ([1]; 30 mg/kg group, Day −2, before first application): 6.2 g per mouse
Daily food intake before the first application ([1]; 30 mg/kg group, Day −3, before first application): 6.5 g per mouse
Daily food intake before the first application ([1]; 30 mg/kg group, Day −4, before first application): 6.4 g per mouse
Daily food intake before the first application ([1]; 30 mg/kg group, Day −5, before first application): 5.8 g per mouse
Daily food intake on the days of application ([1]; 30 mg/kg oral once daily, Day 1): 1.4 g per mouse
Daily food intake on the days of application ([1]; 30 mg/kg oral once daily, Day 2): 0.9 g per mouse
Daily food intake on the days of application ([1]; 30 mg/kg oral once daily, Day 3): 1.2 g per mouse
Daily food intake on the days of application ([1]; 30 mg/kg oral once daily, Day 4): 0.8 g per mouse
Daily food intake on the days of application ([1]; 30 mg/kg oral once daily, Day 5): 0.9 g per mouse
Daily food intake on the days of application ([1]; 30 mg/kg oral once daily, Day 6): 1.1 g per mouse
Daily food intake on the days of application ([1]; 30 mg/kg oral once daily, Day 7): 0.7 g per mouse
Daily food intake on the days of application ([1]; 30 mg/kg oral once daily, Day 8): 0.6 g per mouse
Effect on daily food intake (summary in words) ([1]; db/db mice, treatment once daily oral): reduce in a dose-dependent manner
Daily water intake before the first application ([2]; Day −1, before first application): 8.6 g per mouse
Daily water intake before the first application ([2]; Day −2, before first application): 7.9 g per mouse
Daily water intake before the first application ([2]; Day −3, before first application): 8.4 g per mouse
